Patent US20050197350A1, “Novel quinoline, tetrahydroquinazoline, and pyrimidine derivatives and methods of treatment related to the use thereof” (TAISHO PHARMACEUTICAL CO., LTD., priority 2003, published 2005)

Tested on: MCH receptors
Assay: MCH receptor activity class (method not given)
[1] = class by percent of control at 10^−7 M or IC50
[2] = class by percent of control at 10^-7 M or IC50
[3] = class 1-3 by percent of control at 10^-7 M or IC50
[4] = MCH receptor activity class 1-3 (percent of control at 10^-7 M or IC50)
[5] = MCH receptor, class by percent of control at 10^-7 M or IC50
[6] = activity class per percent of control at 10^-7 M or IC50

## Cc1cnc(NC[C@H]2CC[C@@H](NC(=O)c3ccc(Br)cc3)CC2)nc1N(C)C [compound 2724, 4-bromo-N-[cis-4-({[4-(dimethylamino)-5-methylpyrimidin-2-yl]amino}methyl)cyclohexyl]benzamide]
[1]
  class: 3 (Class 3 The value of percent of control at 10^−7 M was more than 60% or the value of IC50 was more than 200 nM.)

## COc1cc2ccccc2cc1CN[C@H]1CC[C@@H](Nc2cc(N(C)C)c3ccccc3n2)CC1 [compound 1454]
[2]
  class: 3 (Class 3 The value of percent of control at 10^−7 M was more than 60% or the value of IC50 was more than 200 nM.)

## CN(C)c1nc(N[C@H]2CC[C@@H](NC(=O)c3ccc(Cl)c(Cl)c3)CC2)nc2c1CCCC2 [compound 467, 3,4-dichloro-N-(cis-4-{[4-(dimethylamino)-5,6,7,8-tetrahydroquinazolin-2-yl]amino}cyclohexyl)benzamide]
[3]
  class: 1 (Class 1: The value of percent of control at 10^−7 M was less than 40% or the value of IC50 was less than 50 nM.)

## CN(C)c1ccnc(N[C@H]2CC[C@@H](NC(=O)c3ccccc3-c3ccccc3)CC2)n1 [compound 894]
[2]
  class: 3 (Class 3 The value of percent of control at 10^−7 M was more than 60% or the value of IC50 was more than 200 nM.)

## CN(C)c1ccnc(N[C@H]2CC[C@@H](NC(=S)NCc3cccc4ccccc34)CC2)n1 [compound 2332]
[4]
  class: 3 (Class 3 The value of percent of control at 10^−7 M was more than 60% or the value of IC50 was more than 200 nM.)

## CCCCc1ccc(NC(=S)N[C@H]2CC[C@@H](Nc3nc4c(c(N(C)C)n3)CCCC4)CC2)c(C)c1 [compound 1793]
[2]
  class: 3 (Class 3 The value of percent of control at 10^−7 M was more than 60% or the value of IC50 was more than 200 nM.)

## Cc1ccc(C(=O)CC(SCc2ccc(Cl)cc2)C(=O)N[C@H]2CC[C@@H](Nc3nccc(N(C)C)n3)CC2)cc1 (relative stereo) [compound 882]
[2]
  class: 3 (Class 3 The value of percent of control at 10^−7 M was more than 60% or the value of IC50 was more than 200 nM.)

## CCc1ccccc1NC(=O)N[C@H]1CC[C@@H](Nc2cc(N(C)C)c3ccccc3n2)CC1 [compound 2107]
[2]
  class: 3 (Class 3 The value of percent of control at 10^−7 M was more than 60% or the value of IC50 was more than 200 nM.)

## CN(C)c1nc(N[C@H]2CC[C@@H](NC(=O)c3cc(F)cc(C(F)(F)F)c3)CC2)nc2c1CCCC2 [compound 474]
[3]
  class: 1 (Class 1: The value of percent of control at 10^−7 M was less than 40% or the value of IC50 was less than 50 nM.)

## CCOc1ccc2ccccc2c1C(=O)N[C@H]1CC[C@@H](Nc2cc(N(C)C)c3ccccc3n2)CC1 [compound 129]
[5]
  class: 3 (Class 3 The value of percent of control at 10^−7 M was more than 60% or the value of IC50 was more than 200 nM.)

## CN(C)c1ccnc(N[C@H]2CC[C@@H](CNC(=O)OCc3ccccc3)CC2)n1 [compound 400]
[2]
  class: 3 (Class 3 The value of percent of control at 10^−7 M was more than 60% or the value of IC50 was more than 200 nM.)

## CN(C)c1cc(N[C@H]2CC[C@@H](NC(=O)Nc3ccc(Br)cc3C(F)(F)F)CC2)nc2ccccc12 [compound 2152]
[2]
  class: 3 (Class 3 The value of percent of control at 10^−7 M was more than 60% or the value of IC50 was more than 200 nM.)

## CN(C)c1ccnc(N[C@H]2CC[C@@H](NC(=O)c3cccc(F)c3)CC2)n1 [compound 323]
[2]
  class: 3 (Class 3 The value of percent of control at 10^−7 M was more than 60% or the value of IC50 was more than 200 nM.)

## CCOc1ccc(C(=O)N[C@H]2CC[C@@H](Nc3ncc(C)c(N(C)C)n3)CC2)cc1 [compound 2921, N-(cis-4-{[4-(dimethylamino)-5-methylpyrimidin-2-yl]amino}cyclohexyl)-4-ethoxybenzamide]
[1]
  class: 2 (Class 2: The value of percent of control at 10^−7 M was from 40% to 60% or the value of IC′50 was from 50 nM to 200 nM.)

## CN(C)c1cc(N[C@H]2CC[C@@H](CNC(=O)c3cccc(OC(F)(F)F)c3)CC2)nc2ccccc12 [compound 181, N-[(cis-4-{[4-(dimethylamino)quinolin-2-yl]amino}cyclohexyl)methyl]-3-(trifluoromethoxy)benzamide]
[5]
  class: 3 (Class 3 The value of percent of control at 10^−7 M was more than 60% or the value of IC50 was more than 200 nM.)

## CN(C)c1nc(N[C@H]2CC[C@@H](NC(=O)Cc3ccc(F)cc3)CC2)nc2c1CCCC2 [compound 504]
[3]
  class: 1 (Class 1: The value of percent of control at 10^−7 M was less than 40% or the value of IC50 was less than 50 nM.)

## Cc1nc(N[C@H]2CC[C@@H](NC(=O)c3nccnc3N)CC2)nc(N(C)C)c1C [compound 2833]
[1]
  class: 2 (Class 2: The value of percent of control at 10^−7 M was from 40% to 60% or the value of IC′50 was from 50 nM to 200 nM.)

## CN(C)c1nc(N[C@H]2CC[C@@H](NC(=O)c3ccc(Br)s3)CC2)nc2c1CCCC2 [compound 949]
[2]
  class: 2 (Class 2: The value of percent of control at 10^−7 M was from 40% to 60% or the value of IC′50 was from 50 nM to 200 nM.)

## CN(C)c1ccnc(N[C@H]2CC[C@@H](NC(=O)c3cc(-c4ccccc4)nc4ccccc34)CC2)n1 [compound 896, N-(cis-4-{[4-(dimethylamino)pyrimidin-2-yl]amino}cyclohexyl)-2-phenylquinoline-4-carboxamide]
[2]
  class: 2 (Class 2: The value of percent of control at 10^−7 M was from 40% to 60% or the value of IC′50 was from 50 nM to 200 nM.)

## CN(C)c1nc(N[C@H]2CC[C@@H](NC(=O)c3cc(Br)c(Br)o3)CC2)nc2c1CCCC2 [compound 982]
[6]
  class: 1 (Class 1: The value of percent of control at 10^−7 M was less than 40% or the value of IC50 was less than 50 nM.)

## CN(C)c1nc(N[C@H]2CC[C@@H](NC(=O)C3=Cc4cc(Cl)ccc4OC3)CC2)nc2c1CCCC2 [compound 578]
[3]
  class: 3 (Class 3 The value of percent of control at 10^−7 M was more than 60% or the value of IC50 was more than 200 nM.)

## CN(C)c1cc(N[C@H]2CC[C@@H](NC(=O)NC(c3ccccc3)c3ccccc3)CC2)nc2ccccc12 [compound 2119, N-(cis-4-{[4-(dimethylamino)quinolin-2-yl]amino}cyclohexyl)-N′-(diphenylmethyl)urea]
[2]
  class: 2 (Class 2: The value of percent of control at 10^−7 M was from 40% to 60% or the value of IC′50 was from 50 nM to 200 nM.)

## Cc1cnc(NC[C@H]2CC[C@@H](NC(=O)c3ccc4c(c3)OC(F)(F)O4)CC2)nc1N(C)C [compound 2730]
[1]
  class: 3 (Class 3 The value of percent of control at 10^−7 M was more than 60% or the value of IC50 was more than 200 nM.)

## Cc1cnc(N[C@H]2CC[C@@H](CNC(=O)c3cc(Cl)cc(Cl)c3)CC2)nc1N(C)C [compound 2706, 3,5-dichloro-N-[(cis-4-{[4-(dimethylamino)-5-methylpyrimidin-2-yl]amino}cyclohexyl)methyl]benzamide]
[1]
  class: 1 (Class 1: The value of percent of control at 10^−7 M was less than 40% or the value of IC50 was less than 50 nM.)

## Cc1cc(N(C)C)nc(NC[C@H]2CC[C@@H](NC(=O)c3ccc4c(c3)OC(F)(F)O4)CC2)n1 [compound 2750]
[1]
  class: 3 (Class 3 The value of percent of control at 10^−7 M was more than 60% or the value of IC50 was more than 200 nM.)

## CN(C)c1nc(NC2CCC(NC(=S)NC3CC4CCC3C4)CC2)nc2c1CCCC2 (stereo not drawn) [compound 1790]
[2]
  class: 3 (Class 3 The value of percent of control at 10^−7 M was more than 60% or the value of IC50 was more than 200 nM.)

## CN(C)c1nc(N[C@H]2CC[C@@H](NC(=S)Nc3cccc(OCc4ccccc4)c3)CC2)nc2c1CCCC2 [compound 2008]
[5]
  class: 3 (Class 3 The value of percent of control at 10^−7 M was more than 60% or the value of IC50 was more than 200 nM.)

## CN(C)c1cc(N[C@H]2CC[C@@H](CNCCc3ccc(C(C)(C)C)cc3)CC2)nc2ccccc12 [compound 1468]
[2]
  class: 3 (Class 3 The value of percent of control at 10^−7 M was more than 60% or the value of IC50 was more than 200 nM.)

## COc1cc(CC(=O)N[C@H]2CC[C@@H](Nc3nc4c(c(N(C)C)n3)CCCC4)CC2)cc(OC)c1O [compound 976]
[2]
  class: 1 (Class 1: The value of percent of control at 10^−7 M was less than 40% or the value of IC50 was less than 50 nM.)

## Cc1ccc(NC(=S)N[C@H]2CC[C@@H](Nc3nc4c(c(N(C)C)n3)CCCC4)CC2)c(Br)c1 [compound 1758]
[2]
  class: 3 (Class 3 The value of percent of control at 10^−7 M was more than 60% or the value of IC50 was more than 200 nM.)

## CN(C)c1nc(N[C@H]2CC[C@@H](NC(=O)c3ccc4ncsc4c3)CC2)nc2c1CCCC2 [compound 1054]
[6]
  class: 3 (Class 3 The value of percent of control at 10^−7 M was more than 60% or the value of IC50 was more than 200 nM.)

## Cc1cc(NC(=O)N[C@H]2CC[C@@H](Nc3nc4c(c(N(C)C)n3)CCCC4)CC2)ccc1Br [compound 1885]
[2]
  class: 3 (Class 3 The value of percent of control at 10^−7 M was more than 60% or the value of IC50 was more than 200 nM.)

## CN(C)c1nc(N[C@H]2CC[C@@H](NC(=S)NCC(c3ccccc3)c3ccccc3)CC2)nc2c1CCCC2 [compound 2030]
[5]
  class: 2 (Class 2: The value of percent of control at 10^−7 M was from 40% to 60% or the value of IC′50 was from 50 nM to 200 nM.)

## CCc1cccc(C)c1NC(=O)NC[C@H]1CC[C@@H](Nc2nccc(N(C)C)n2)CC1 [compound 2408, N-[(cis-4-{[4-(dimethylamino)pyrimidin-2-yl]amino}cyclohexyl)methyl]-N′-(2-ethyl-6-methylphenyl)urea]
[4]
  class: 1 (Class 1: The value of percent of control at 10^−7 M was less than 40% or the value of IC50 was less than 50 nM.)

## CN(C)c1nc(N[C@H]2CC[C@@H](NC(=S)Nc3ccc4c(c3)OCCO4)CC2)nc2c1CCCC2 [compound 1784]
[2]
  class: 3 (Class 3 The value of percent of control at 10^−7 M was more than 60% or the value of IC50 was more than 200 nM.)

## COc1cccc(OCC(=O)N[C@H]2CC[C@@H](Nc3ncc(C)c(N(C)C)n3)CC2)c1 [compound 2877, N-(cis-4-{[4-(dimethylamino)-5-methylpyrimidin-2-yl]amino}cyclohexyl)-2-(3-methoxyphenoxy)acetamide]
[1]
  class: 1 (Class 1: The value of percent of control at 10^−7 M was less than 40% or the value of IC50 was less than 50 nM.)
